Data: patent US20090099160A1, “4-(4-(Imidazol-4-Yl) Pyrimidin-2-Ylamino) Benzamides as CDK Inhibitors” (priority 2004, published 2009)

What was measured:
[1] = High Throughput Blood Level Assay - Rat; type: in vivo; conditions: male, Alderley Park (AP), Wistar derived, Alpk..APfSD, plasma, oral cocktail dosing, normalised to a 1 mg/kg dose
Description: (§1) The level of oral exposure of a compound can be measured by the following assay. This assay gives a semi-quantitative measure of the concentration of the compound achieved in the blood at a number of time points. Data available include Cmax (highest concentration achieved), and the AUC (area under the plasma concentration/time curve) for the compound. This gives a high throughput measure of likelihood of obtaining blood levels for each compound following oral dosing and as the data are normalised for dose, it allows direct comparison of each compound.
A cocktail of 6 compounds is formulated in propylene glycol using a combination of vortex mixing, sonication and high speed shear mixing. This formulation consists of 5 test compounds (1 mg/ml) and a standard (0.5 mg/ml). The resulting formulation is a solution or a stable (≧several hours) suspension.
The formulation is dosed (2 ml/kg) to two male rats (170-250 gm) which have been fasted for ≦16 hours then pre-dosed with water (˜10 ml/kg). The dose for the test compounds is 2 mg/kg and for the standard it is 1 mg/kg. […]
Samples are analysed by LC/MS-MS and the concentration obtained is used to determine the Cmax μg/ml (maximum compound level detected), AUC0-6 hr μg/hr/ml (area under the curve) and tmax hr (time that the maximum compound levels have been measured) for a given compound to give an indication of exposure […]

[2] = High Throughput Blood Level Assay - Mice; type: in vivo; conditions: male, Alpk..APfCD-1, plasma, 2 mg/kg; AP mouse, oral cocktail dosing, normalised to 1 mg/kg
Description: as §1
The above assay may be run using mice in place of rats, but with the following variations.
For a profile in mice 10 male mice are dosed at the same level as to rats but they are not fasted or predosed with water. Furthermore, samples from mice are all terminal, with 2 mice per time point.
The mice used in the above experiment were AP mice. The AP mouse was originally obtained from a commercial breeder Schoefields in 1956. The stock was rederived by fostering onto a CD-1 Charles Rivers (commercial supplier) outbred mouse and has remained a closed colony ever since. The nomenclature for these animals is Alpk..APfCD-1.

[3] = target: T1, CDK2/Cyclin E (Homo sapiens, UniProt P24941); experiment: CDK2/Cyclin E in vitro kinase assay (Scintillation Proximity Assay, GST-Rb substrate); type: biochemical; conditions: read-out: CDK2 inhibitory activity IC50
T1 construct: made in house; host or cells: Sf21 insect cells (baculovirus co-infection, pVL1393); the GST-Rb substrate was made in E. coli BL21 (DE3) pLysS
Experimental: The compounds were tested in an in vitro kinase assay in 96 well format using Scintillation Proximity Assay (SPA—obtained from Amersham) for measuring incorporation of [γ-33-P]-Adenosine Triphosphate into a test substrate (GST-Retinoblastoma protein; GST-Rb). In each well was placed the compound to be tested (diluted in DMSO and water to correct concentrations) and in control wells either roscovitine as an inhibitor control or DMSO as a positive control. […]
The plates were sealed with Topseal-S plate sealers, left for two hours then spun at 2500 rpm, 1124 xg., for 5 minutes. The plates were read on a Topcount for 30 seconds per well. […]
E. coli paste was resuspended in 10 ml/g of NETN buffer (50 mM Tris pH 7.5, 120 mM NaCl, 1 mM EDTA, 0.5% v/v NP-40, 1 mM PMSF, 1 μg/ml leupeptin, 1 ug/ml aprotinin and 1 ug/ml pepstatin) and sonicated for 2×45 seconds per 100 ml homogenate. […] The final product was analysed by Sodium Dodeca Sulfate (SDS) PAGE (Polyacrylamide gel) using 8-16% Tris-Glycine gels (Novex, San Diego, USA).
The open reading frames of CDK2 and Cyclin E were isolated by reverse transcriptase-PCR using HeLa cell and activated T cell mRNA as a template and cloned into the insect expression vector pVL1393 (obtained from Invitrogen 1995 catalogue number: V1392-20). […]

AUC [1] [µM·h]	Cmax [1] [nM]	AUC [2] [µM·h]	Cmax [2] [nM]	IC50 [3] [nM]	SMILES
0.83	400	1.5	680	–	Cc1ncc(-c2nc(Nc3ccc(C(=O)NC4CC4)c(F)c3)ncc2F)n1C(C)C [Example 25]
–	–	–	–	3	CNC(=O)c1ccc(Nc2ncc(F)c(-c3cnc(C)n3C(C)C)n2)cc1C [Example 28]
